Test results as given in PMC5318439, “The Novel Toll-Like Receptor 2 Agonist SUP3 Enhances Antigen Presentation and T Cell Activation by Dendritic Cells” (Frontiers in Immunology, 2017).
Where a SMILES comes first, the peptide text is derived from it. The star is where a group is joined. X1 = CCCCCCCCCCCCCCNC(=O)OC[C@H](C*)OC(=O)NCCCCCCCCCCCCCC; Palmitoyl = CCCCCCCCCCCCCCCC(=O)*

Legend:
RAW 264.7 cells = experiment: TNFα production by WT RAW 264.7 cells; type: cell-based; conditions: 500 nM, 8 h
Method: Splenic DCs (5 × 10^5 cells/mL) were stimulated by Pam3 (200 nM), SUP3 (200 nM), or CpG ODN 1668 (20 nM; Adipogen IAX-200-001) in the GM-CSF (20 ng/mL) supplemented medium for indicated periods. Cell culture supernatants were harvested at indicated time points and stored at −40°C. […] For in vivo administration, Pam3 (2 nmol per mouse), SUP3 (2 nmol per mouse), or LPS (1 µg per mouse) were intravenously (i.v.) injected via tail veins. Serum was obtained through tail vein bleeding and centrifuged after coagulation and stored at −40°C. Cytokines (IL-6, eBioscience 88-7064; TNFα, eBioscience 88-7324; IL-12p40, BioLegend 431604), chemokine (MIP1α, R&D Systems DY450-05), and total IgM (eBioscience, 88-50470) were quantified by ELISA kits following the instructions of manufacturers.
Figure 1 Specificity and activity of novel TLR2 agonist SUP3. (A) Schematic chemical structure of SUP3. (B) Surface expression of TLR2 in wild-type (WT) and Tlr2^−/− RAW 264.7 cell lines. Gray shadows represented isotype control and black lines represented TLR2. (C) TNFα production by RAW 264.7 cells upon stimulation with lipopolysaccharide (LPS) (1 µg/mL), Pam3CSK4 (Pam3 hereafter) (500 nM), or SUP3 (500 nM) for 8 h. […] The production of cytokines IL-6 and TNFα in culture supernatant was determined by ELISA. *p < 0.05, ****p < 0.0001, “n.s.” indicates statistically non-significant.

splenic CD11b^+ cDCs = experiment: CD86 expression on splenic CD11b+ cDCs after i.v. administration; type: in vivo, mice; conditions: 2 nmol per mouse i.v., 1 h
Method: Figure 5 SUP3 enhanced antigen presentation ability of CD11b^+ conventional dendritic cells (cDCs) and production of antibodies against thymus-dependent (TD) antigens. (A) Mice were immunized by TD antigen nitrophenyl-keyhole limpet hemocyanin (NP-KLH) (5 µg per mouse) with or without SUP3 (2 nmol per mouse), Pam3 (2 nmol per mouse), or alum (3 µg per mouse) as adjuvants, respectively. Serum IgM (nitrophenyl 30mer-captured, NP30-captured), total IgG (NP30-captured), and high affinity IgG (nitrophenyl 8mer-captured, NP8-captured) specific to NP at indicated time points were examined by ELISA. […] Three days after immunization, division of OT-II CD4^+ T cells from inguinal lymph nodes were analyzed by flow cytometry (B). Absolute numbers of proliferated OT-II CD4^+ T cells were calculated in (C). […] Cells were then thoroughly washed and cocultured with CFSE-stained OT-II CD4^+ T cells for 4 days and analyzed by flow cytometry. (D) The division of OT-II cells was measured by reduced level of CFSE-labeling. (E) Absolute numbers of proliferated T cells from (D) were calculated. (F) SUP3 (2 nmol per mouse), Pam3 (2 nmol per mouse), or PBS were i.v. injected into mice for 1 h, and splenic CD11b^+ cDCs were enriched and analyzed for CD86 expression by flow cytometry. […] The cytokines from supernatant were determined by ELISA (*p < 0.05, **p < 0.01). […]

| Compound | TNFα production by WT RAW cells (RAW 264.7 cells) | CD86 on splenic CD11b+ cDC in vivo (splenic CD11b^+ cDCs) |
| --- | --- | --- |
| CCCCCCCCCCCCCCCC(=O)N[C@@H](CSC[C@@H](COC(=O)NCCCCCCCCCCCCCC)OC(=O)NCCCCCCCCCCCCCC)C(=O)NCC(=O)N[C@@H](CCCCN)C(=O)N[C@@H](CCCCN)C(=O)N[C@@H](CCCCN)C(=O)O [SUP3, (2S,5S,8S,14R,18R)-2,5,8-tris(4-aminobutyl)-4,7,10,13,21-pentaoxo-14-palmitamido-18-((tetradecylcarbamoyl)oxy)-20-oxa-16-thia-3,6,9,12,22-pentaazahexatriacontan-1-oic acid] (Palmitoyl-C(X1)GKKK-OH) | large amount of TNFα production | CD86 upregulation |
| Pam3CSK4 [reference compound] | large amount of TNFα production | CD86 upregulation |
